Results from patent US20050244906A1, “Detection kit, assay plate to be used therein, detection method, evaluation method, polyclonal antibody of frog vitellogenin and process for producing the same” (priority 2002, published 2005).
Read-outs that look alike come from different tables or passages of the source.

Columns and labels:
[1] = system: hepatocyte in primary culture of an adult male Xenopus laevis; format: cell-based
Description: Furthermore, by use of the assay system, the antagonist activity of a target substance could be evaluated.

[2] = system: adult male Xenopus laevis; assay: Exposure in water of adult male Xenopus laevis; vitellogenin quantified by ELISA sandwich method; format: in vivo
Method: Adult male Xenopus laevis of same age (two years and half old) were used. Every five thereof were bred in each of a water bath where one in which in 20 L of dechlorinated tap water E2 dissolved in DMSO was added was filled (experimental group) and a water bath where one in which in 20L of dechlorinated tap water the same amount of DMSO that is a solvent was added is filled (comparative group). Exposure concentrations of the E2 were five levels of 0.1 nM, 1 nM, 10 nM, 100 nM and 1000 nM, and, at 3.5 days during a breeding period of 7 days, the breeding water was once exchanged. A water temperature was set at 22 degrees centigrade, bright and dark periods each were set at 12 hr, and during a test period bait was not fed.
At the detection of the vitellogenin, two samples of a blood serum and a liver homogenate were used and compared to study.
A. Sampling of Blood Serum
1. To an abdominal cavity of a frog, 0.5 to 1.0 ml of an anesthetic agent (20 mg/ml aminobenzoic acid ethyl ester) was injected.
2. An operation was performed, and 0.2 ml of blood was sampled from a pulsating heart with a syringe in a tube and placed on ice.
3. A centrifugal process was applied at 15000 rpm, at 4 degrees centigrade for 10 min, followed by sampling a supernatant.
4. Dilution was applied at a factor of 10 with a 20 mM of an EDTA-0.2 percent Tween 20-PBS solution followed by refrigerating and preserving (in the case of long preservation, by freezing and preserving).
The diluted sample was quantified of the vitellogenin according to the ELISA sandwich method.
1. After the sampling of blood, a liver piece was cut to substantially 0.05 to 0.1 g followed by weighing.
2. In a tube where the liver piece put, 1 ml of 20 mM EDTA-0.5% Tween 20-PBS solution was added.
3. The liver was homogenized over ice.
4. A centrifugal process was applied at 15000 rpm, at 4 degrees centigrade for 10 min, followed by sampling a supernatant, further followed by refrigerating and preserving (in the case of long preservation, by freezing and preserving).
The diluted sample was quantified of the vitellogenin by ELISA sandwich.

[3] = system: hepatocyte in primary culture of an adult male Xenopus laevis; assay: VTG synthesis induction in primary hepatocyte culture, VTG in culture liquid by ELISA; format: cell-based; conditions: for estrogenic activity detected, equivalent E2 concentration: primary hepatocyte culture
Method: • 10×perfusate (0.14% KCl, 5.5% NaCl, 0.44% pyruvate, 1% glucose, 2.38% HEPES, 5% BSA and 0.2% NaHCO3) • Collagenase perfusate (1×perfusate is controlled to pH 7.2 to 7.5 with phenol red to prepare a solution of 0.1% collagenase. Filtration and sterilization) • Culture liquid (50% L-15, 1 μg/ml insulin, 0.5% glucose and antibiotics) B: Sampling Method of Hepatocyte […] A frog is sterilized in potassium permanganate (5 mg/ml) for 2 hr or more (superficial skin color becomes brown). 2. An anesthetic (20 mg/ml-aminobenzoic acid ethylester) is injected by 0.5 to 1.0 ml to an abdominal cavity. 3. A ventral skin is thoroughly sterilized with a cotton bud wetted with alcohol, followed by operating. 4. A heart is exposed, a syringe is inserted from a cardiac chamber, and a collagenase perfusate is sent in through a hepatic vein by use of a […] pump to perfuse a liver. 5. The liver is taken out and transferred in a beaker, followed by cutting small with a pair of scissors. 6. Transferring into an L-tube together with a small amount of collagenase perfusate. 7. Shaking for 30 to 60 min in an incubator at 24 degrees centigrade. 8. Suspending thoroughly with a pipette, followed by filtering through a nylon mesh. 9. A slight amount of culture liquid is added, followed by centrifuging at 300 rpm for 1 to 2 min. […] A centrifugal supernatant is sucked and removed, followed by centrifuging a culture liquid once more (this operation is repeated twice). 11. […] 12. Seeding every 100 to 300 μl to a microplate (substantially 20,000 pieces/well is better). 13. Cultivating in an incubator at 24 degrees centigrade. […] In the case of the E2 processing, it is known that from the third day on after the processing vitellogenin can be detected in the culture liquid; however, since survived hepatocytes in culture are stable for three weeks, for the test of a substance low in the activity, evaluation is carried out for a longer period. As one of applications of the ELISA KIT, an application to the quantification of VTG concentration in a liquid Xenopus laevis hepatocyte culture was studied as well. […] Of a culture liquid after 6 days from the start of culturing (exchanged on the third day), the quantification of the VTG concentration was carried out with the ELISA KIT. By combining the exposure test to hepatocytes in primary culture and the ELISA, an application to a quantitative screening method of the estrogen activity of various chemicals was studied. […] According to a method similar to (Example 2-2), primary cultured hepatocytes of an adult male Xenopus laevis were prepared, followed by culturing in a culture liquid containing one of the chemicals, and with a culture liquid after 6 days, according to the ELISA, a VTG concentration in the culture liquid was quantified.

[4] = system: adult male Xenopus laevis; assay: Injection method in adult male Xenopus laevis; vitellogenin quantified by ELISA sandwich method; format: in vivo
Method: Adult male Xenopus laevis same in the age as A were used. Five thereof in which an E2 solution was injected by means of injection (experimental group) and another five thereof in which propylene glycol that was a solvent was injected by use of an injection by substantially 200 μl (comparative group) were bred in a glass water bath filled with 20 L of dechlorinated tap water. Exposure concentrations of E2 were five levels of 0.002 μg/g BW, 0.02 μg/g BW, 0.2 μg/g BW, 2 μg/g BW and 20 μg/g BW, and, during a breeding period of 7 days, reinjection was once (at 3.5 days) applied. A water temperature was set at 22 degrees centigrade, bright and dark periods each were set at 12 hr, and during a test period bait was not fed. At the injection, individual organisms were measured of weight and substantially 200 μl of the E2 solution was injected so as to be a set concentration. At the detection of the vitellogenin, two samples of a blood serum and a liver homogenate were used and compared to study. A. Sampling of Blood Serum 1. To an abdominal cavity of a frog, 0.5 to 1.0 ml of an anesthetic agent (20 mg/ml aminobenzoic acid ethyl ester) was injected. 2. An operation was performed, and 0.2 ml of blood was sampled from a pulsating heart with a syringe in a tube and placed on ice. 3. […] The diluted sample was quantified of the vitellogenin according to the ELISA sandwich method.

CC(C)(c1ccc(O)cc1)c1ccc(O)cc1 [BPA, bisphenol A] was tested, and the “antagonist activity on VTG synthesis induction due to 5 nM E2” value ([1]; co-culture with 5 nM E2, increasing concentration of added chemical) was “antagonistic activity was exhibited”.
For nonylphenol [NP], the “antagonist activity on VTG synthesis induction due to 5 nM E2” value [1] was “antagonistic activity was exhibited”.
With C[C@]12CC[C@@H]3c4ccc(O)cc4CC[C@H]3[C@@H]1CC[C@@H]2O [E2, 17β-estradiol] the “E2 concentration at which blood plasma VTG / VTG synthesis induction can be detected with the ELISA KIT” value ([2]; exposure in water for 7 days, adult male, ELISA KIT) was at least 1 nM, the “vitellogenin response at 100 nM” value ([2]; exposure in water, 7 days, 100 nM) was “obviously rose high” and the “vitellogenin synthesis at 1000 nM” value ([2]; exposure in water, 7 days, 1000 nM) was “does not increase”. For the same molecule, the “E2 concentration from which vitellogenin response was observed” value ([2]; exposure in water, 7 days, adult male) was at least 10 nM, the “concentration range of abrupt rise of vitellogenin” value ([2]; exposure method in water) was 10 to 100 nM and the “production quantity of the vitellogenin” value ([2]; exposure method in water, 100 nM) was about 13000 μg/ml. The “concentration at which vitellogenin synthesis reaches the maximum” value ([3]; cultivated hepatocyte) was “lower than 1000 nM”, the “exposure concentration giving significant concentration-dependent increase in vitellogenin concentration” value ([3]; hepatocyte in culture, culture liquid, ELISA) was at least 0.6 nM and the “estrogenic activity detected, equivalent E2 concentration” value ([3]; ELISA KIT) was about 0.1 nM. The “estrogenic activity detected, equivalent E2 concentration” value ([3]; ELISA with biotinylated antibody) was about 0.03 nM, the “dose dependence of vitellogenin response” value [4] was “increased dependent on an administered amount” and the “production quantity of the vitellogenin” value ([4]; at 73 nM (assumed uniform diffusion in body)) was about 14000 μg/ml.
